Test results as given in ChEMBL document CHEMBL3867439, “Affinity Crystallography: A New Approach to Extracting High-Affinity Enzyme Inhibitors from Natural Extracts” (J Nat Prod, 2016).

target: T1, Cathepsin K (Homo sapiens, UniProt P43235); assay: Competitive inhibition of human recombinant cathepsin K using Z-FR-MCA fluorogenic substrate by Dixon plot analysis
T1 sequence (P43235 whole entry): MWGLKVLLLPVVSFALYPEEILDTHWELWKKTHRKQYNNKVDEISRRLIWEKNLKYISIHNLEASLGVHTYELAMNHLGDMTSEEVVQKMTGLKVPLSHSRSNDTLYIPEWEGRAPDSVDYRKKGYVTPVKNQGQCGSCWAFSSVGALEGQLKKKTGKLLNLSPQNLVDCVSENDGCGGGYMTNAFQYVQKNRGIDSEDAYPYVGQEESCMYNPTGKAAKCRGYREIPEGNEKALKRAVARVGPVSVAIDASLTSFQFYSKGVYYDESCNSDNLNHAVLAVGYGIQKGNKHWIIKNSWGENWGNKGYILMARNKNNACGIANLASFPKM

Row | Ki | SMILES
1 | 393 nM | CC(C)[C@H](NC(=O)[C@H](CCCNC(=N)N)NC(=O)N[C@@H](Cc1ccccc1)C(=O)O)C(=O)NC1=CN(C(=N)N)CCC1
2 | 163 nM | CC(C)[C@H](NC(=O)[C@H](CCCNC(=N)N)NC(=O)N[C@@H](Cc1ccccc1)C(=O)O)C(=O)NC1CCCN(C(=N)N)C1=O (stereo partly specified)
3 | 105 nM | CC(C)[C@H](NC(=O)[C@H](CCCNC(=N)N)NC(=O)N[C@@H](Cc1ccccc1)C(=O)O)C(=O)NC1CCCN(C(=N)N)C1O (stereo in doubt; form 1)
4 | 69 nM | CC(C)[C@H](NC(=O)[C@H](CCCNC(=N)N)NC(=O)N[C@@H](Cc1ccccc1)C(=O)O)C(=O)NC1CCCN(C(=N)N)C1O (stereo in doubt; form 2)

target: T1, Cathepsin K; assay: Competitive inhibition of human recombinant cathepsin K using Z-FR-MCA fluorogenic substrate by Handerson plot analysis

Row | Ki | SMILES
5 | 11 nM | CC(C)[C@H](NC(=O)[C@H](CO)NC(=O)NCCCCNC(=N)N)C(=O)N[C@H]1CCCN(C(=N)N)C1O (stereo partly specified)
6 | 41 nM | CC(C)[C@H](NC(=O)[C@H](CCCNC(=N)N)NC(=O)N[C@@H](Cc1ccccc1)C(=O)O)C(=O)NC1CCCN(C(=N)N)C1O (stereo in doubt; form 2)
